Measured values reported in US20220251054A1, “Analogues and Methods of Treating Rett Syndrome” (The Regents of the University of California, priority 2019, published 2022).
“Also recorded” adds a separate entry of the source.

How the values were obtained:
Cx+GE organoids = test: Live organoid calcium imaging (GCaMP6f) with GABAA receptor antagonist; format: cell-based, human; conditions: for synchronization of calcium transients / neural activities: Cx+GE organoids, bicuculline methiodide 100 μM or gabazine 25 μM
Cx+Cx organoids = test: as above; format: cell-based, human; conditions: for synchronization of calcium transients / neural activities: Cx+Cx organoids, bicuculline methiodide 100 μM or gabazine 25 μM
Mut Cx+GE organoids = test: Extracellular recording of local field potentials (LFP) in Rett syndrome fusion organoids; format: cell-based, human; conditions: for high frequency oscillations (HFOs, about 200-500 Hz) / lower frequency / gamma oscillations (about 40-80 Hz) / spiking activity / spike frequency: Mut Cx+GE organoids treated 48-hr; for high frequency oscillations (HFOs, about 200-500 Hz) / lower frequency / gamma oscillations (about 40-80 Hz): 2 mM VPA or 10 μM Pifithrin-α; for spiking activity / spike frequency: 2 mM sodium valproate (VPA) or 10 μM Pifithrin-α
[1] = test system: MECP2− (Mutant) interneurons; test: P21 protein immunofluorescence (senescence marker) in treated neurons; format: cell-based; conditions: 10 μM, 48 hours, WT and Mutant interneurons
Mutant IPSCs = format: cell-based; conditions: 10 μM, 48 hours
P53 = P53 (Homo sapiens, UniProt P04637); conditions: cited from earlier work
Chain of P53 (P04637 whole entry): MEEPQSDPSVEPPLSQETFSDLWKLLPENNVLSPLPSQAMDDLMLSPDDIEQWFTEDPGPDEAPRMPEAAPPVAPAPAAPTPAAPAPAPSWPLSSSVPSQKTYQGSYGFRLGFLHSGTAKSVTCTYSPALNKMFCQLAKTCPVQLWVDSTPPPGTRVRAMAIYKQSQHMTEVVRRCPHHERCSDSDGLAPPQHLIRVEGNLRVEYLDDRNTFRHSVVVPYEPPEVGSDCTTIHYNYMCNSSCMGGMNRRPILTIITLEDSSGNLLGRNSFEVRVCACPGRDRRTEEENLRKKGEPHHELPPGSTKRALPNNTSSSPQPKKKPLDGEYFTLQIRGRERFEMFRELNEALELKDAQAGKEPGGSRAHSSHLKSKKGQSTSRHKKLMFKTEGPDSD

Row | SMILES | synchronization of calcium transients / neural activities (Cx+GE organoids) | synchronization of calcium transients / neural activities (Cx+Cx organoids) | high frequency oscillations (HFOs, about 200-500 Hz) (Mut Cx+GE organoids) | lower frequency / gamma oscillations (about 40-80 Hz) (Mut Cx+GE organoids) | spiking activity / spike frequency (Mut Cx+GE organoids) | increased levels of P53 target genes (RT-PCR) (Mutant IPSCs) | also measured
1 | C[N+]1(C)CCc2cc3c(cc2[C@H]1[C@@H]1OC(=O)c2c1ccc1c2OCO1)OCO3.[I-] [BMI, bicuculline methiodide] | spontaneous synchronization of neural activities; also recorded: epochs of nearly complete synchronization of calcium transients | minimal effect; also recorded: no such effect | – | – | – | – | hierarchical clustering: groups of neurons with correlated activity (Cx+GE organoids; Cx+GE organoids following BMI treatment): large groups of neurons with highly correlated activity; hierarchical clustering: groups of neurons with correlated activity (Cx+Cx organoids; Cx+Cx organoids following BMI treatment): only small groups
2 | COc1ccc(-c2ccc(=N)n(CCCC(=O)O)n2)cc1 [Gabazine] | epochs of nearly complete synchronization of calcium transients | no such effect | – | – | – | – | –
3 | Cc1ccc(C(=O)Cn2c3c(sc2=N)CCCC3)cc1 [Pifithrin α, 2-(2-imino-4,5,6,7-tetrahydrobenzo[d]thiazol-3(2H)-yl)-1-(p-tolyl)ethan-1-one hydrogen bromide] | – | – | suppressed HFOs | re-emergence of gamma oscillations | similarly reduced spike frequency | abrogated | oscillatory activity (extracellular recording) (Mut Cx+GE organoids; Mut Cx+GE organoids (RTT) exposed to 10 μM for 48 hours, Day 100): reveal oscillatory activity at multiple frequencies; sustained oscillatory activity (PSD) (Mut Cx+GE organoids; Mut Cx+GE organoids exposed to 100 μM for 48 hours, Day 100): shows rescue of sustained oscillatory activity; cell senescence (P21 protein level by immunofluorescence) [1]: block cell senescence due to increased p53 activity; P53 inhibition (P53): effective P53 inhibitor
4 | CC(=O)/N=c1\sc2c(n1CC(=O)c1ccc(C)cc1)CCCC2 [Pifithrin α-Ac, N-(3-(2-oxo-2-(p-tolyl)ethyl)-4,5,6,7-tetrahydrobenzo[d]thiazol-2(3H)-ylidene)aceta-mide] | – | – | – | – | – | abrogated | –
5 | Cc1ccc(-c2cn3c4c(sc3n2)CCCC4)cc1 [Pifithrin β, 2-(p-tolyl)-5,6,7,8-tetrahydroben-zo[d]imidazo[2,1-b]thiazole] | – | – | – | – | – | abrogated | –
6 | CCCC(CCC)C(=O)[O-].[Na+] [VPA, sodium valproate] | – | – | neither decreased HFOs | nor restored lower frequency oscillations | significantly reduced spiking activity | – | –
